Measured values reported in PMC12693701, “Glucosinolate-Derived Metabolites from Barbarea vulgaris (Brassicaceae): Evaluation of Antimicrobial, Antioxidant, and Anti-Inflammatory Potentials” (Molecules, 2025).

Legend:
COX-2 = biological target: T1, COX-2 (Homo sapiens, UniProt P35354); experiment: COX-2 Inhibitor Screening Kit (Fluorometric); format: biochemical; conditions: for inhibition at 10 µM / inhibition at 100 µM: mean ± SE, read-out: Percentage of COX-2 Inhibition
T1 construct: purchased Abcam limited, Cambridge, UK
T1 sequence (P35354 18-604): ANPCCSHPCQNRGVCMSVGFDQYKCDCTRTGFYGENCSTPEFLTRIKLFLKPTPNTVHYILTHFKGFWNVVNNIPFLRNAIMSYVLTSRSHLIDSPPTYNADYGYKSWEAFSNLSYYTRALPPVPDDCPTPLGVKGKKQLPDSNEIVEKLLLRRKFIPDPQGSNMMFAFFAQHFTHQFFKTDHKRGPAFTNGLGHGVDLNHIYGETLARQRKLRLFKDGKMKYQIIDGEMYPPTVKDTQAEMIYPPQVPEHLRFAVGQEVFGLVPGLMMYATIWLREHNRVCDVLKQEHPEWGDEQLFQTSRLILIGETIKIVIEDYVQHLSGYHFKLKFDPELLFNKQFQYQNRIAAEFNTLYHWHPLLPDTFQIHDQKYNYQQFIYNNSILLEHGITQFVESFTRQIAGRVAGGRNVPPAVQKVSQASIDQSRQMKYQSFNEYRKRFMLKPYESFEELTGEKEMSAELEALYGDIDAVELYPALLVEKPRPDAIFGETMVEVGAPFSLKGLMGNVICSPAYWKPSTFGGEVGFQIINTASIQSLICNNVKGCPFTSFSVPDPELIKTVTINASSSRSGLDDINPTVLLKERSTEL
Protocol: The COX-2 Inhibitor Screening Kit (Fluorometric) (Abcam limited, Cambridge, UK) is a sensitive assay for screening COX-2 inhibitors by fluorometrically detecting Prostaglandin G2, an intermediate formed by COX enzymatic activity The COX-2 inhibitory activity was evaluated following the manufacturer’s instructions. Tested compounds were prepared as 5 mM DMSO stock solutions, diluted 5-fold with assay buffer, and 10 µL was used per well. Controls included celecoxib (inhibitor control), DMSO (solvent control) and enzyme control. A reaction mix containing COX-2 enzyme, probe, cofactor, and assay buffer was added (80 µL), followed by 10 µL arachidonic acid/NaOH to start the reaction. Fluorescence (Ex/Em = 535/587 nm) was monitored kinetically at 25 °C. All measurements were performed in triplicate.

tested fungal strains = experiment: Microdilution MIC, summary over tested fungal strains; format: cell-based; conditions: tested concentrations 5 to 0.039 mg/mL
Protocol: The antimicrobial activity was evaluated against 15 microorganisms. This included 11 bacterial strains: four standard strains (Staphylococcus aureus ATCC 25923, Bacillus subtilis ATCC 6633, Bacillus pumilus NCTC 8241, and Escherichia coli ATCC 25922) and six clinical or environmental isolates (Staphylococcus aureus, Escherichia coli, Bacillus cereus, Proteus mirabilis, Salmonella enterica, and Klebsiella pneumoniae). One probiotic strain, Bifidobacterium animalis subsp. lactis was tested. In addition, four fungal strains, Candida albicans ATCC 10231, Trichoderma viride ATCC 13233, Aspergillus flavus ATCC 9170, and Fusarium solani ATCC 11712 were tested. The bacterial strains were kept in glycerol stock at −80 °C and the fungal strains in paraffin oil stock at 4 °C. […]
Antimicrobial activity was evaluated by determining the minimum inhibitory concentration (MIC) and minimum microbicidal concentration (MMC) using the microdilution plate method with resazurin as an indicator [28]. […]
Each test also included growth control and sterility control. […] For molds, MIC values of the tested compound were determined as the lowest concentration that inhibited visible mycelia growth. MMC was determined by inoculation of the nutrient agar medium by plating […] of samples from wells, where no indicator color change was recorded. […]

Row | Structure (SMILES) | IC50 (COX-2) | inhibition at 10 µM (COX-2) | inhibition at 100 µM (COX-2) | antifungal activity (in words) (tested fungal strains)
1 | S=C1NCC(c2ccccc2)O1 (racemic) [Compound 4, rac-5-Phenyl-1,3-oxazolidine-2-thione] | > 100 µM | 4.5 ± 1.6% | 14.2 ± 1% | –
2 | O=C1NCC(c2ccccc2)S1 (stereo not shown) [Compound 6, 5-phenyl-1,3-thiazolidin-2-one] | – | – | – | all fungal strains were resistant
3 | S=C1NC[C@H](c2ccccc2)O1 [Compound 5, (S)-5-phenyl-1,3-oxazolidine-2-thione] | > 100 µM | 8.11 ± 1% | 21.2 ± 1.3% | –
